Assay results: patent publication US20260062443A1 (ALEXION PHARMACEUTICALS, INC., priority 2022, published 2026)
pIC50: −log10 of the molar value.

Target: T1, Human complement C1s enzyme (Homo sapiens, UniProt P09871)
T1 sequence (P09871 438-688 limits assumed): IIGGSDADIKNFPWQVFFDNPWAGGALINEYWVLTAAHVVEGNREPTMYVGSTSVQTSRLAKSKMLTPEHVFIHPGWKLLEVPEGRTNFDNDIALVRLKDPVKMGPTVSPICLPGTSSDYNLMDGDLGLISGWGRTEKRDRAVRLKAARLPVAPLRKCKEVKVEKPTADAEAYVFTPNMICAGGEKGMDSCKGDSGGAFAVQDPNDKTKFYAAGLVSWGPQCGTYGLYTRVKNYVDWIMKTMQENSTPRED
T1 sequence (P09871 16-437 partner limits assumed): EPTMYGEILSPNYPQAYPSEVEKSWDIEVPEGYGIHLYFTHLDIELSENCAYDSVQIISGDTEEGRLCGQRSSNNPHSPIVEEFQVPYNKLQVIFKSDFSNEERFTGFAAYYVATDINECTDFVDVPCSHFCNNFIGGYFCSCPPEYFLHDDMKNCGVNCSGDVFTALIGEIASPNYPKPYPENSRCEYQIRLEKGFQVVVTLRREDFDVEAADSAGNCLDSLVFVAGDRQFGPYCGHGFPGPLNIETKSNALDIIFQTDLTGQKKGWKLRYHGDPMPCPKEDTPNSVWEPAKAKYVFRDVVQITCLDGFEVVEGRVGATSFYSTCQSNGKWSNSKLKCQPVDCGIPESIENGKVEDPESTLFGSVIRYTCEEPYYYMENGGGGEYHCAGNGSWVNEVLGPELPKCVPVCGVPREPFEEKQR
Assay: Human C1s enzyme assay
Assay type: biochemical
Conditions: human complement C1s enzyme 1.16 nM, substrate Z-L-Lys-SBzl 100 μM, 5 min preincubation; read-out: IC50 (Stars), C1s Inhibiting Activity
In short: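 IC50 from nonlinear regression of reaction rates versus compound concentration, with rates taken from A405 recorded at 30 s intervals over 30 min after adding 100 μM Z-L-Lys-SBzl plus 100 μM DTNB. Enzyme was human C1s purified from serum, 1.16 nM, given 5 min compound preincubation at room temperature, pH 7.5 Tris/1 M NaCl.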

pIC50 | SMILES
6.00 to 7.00 | Cc1ccc2cc(C(=O)NCC(=O)N3CC4(C[C@H]3C(=O)NCc3cc5cnccc5[nH]3)OCCO4)sc2c1 [Compound 281, (S)-N-((1H-pyrrolo[3,2-c]pyridin-2-yl)methyl)-7-((6-methylbenzo[b]thiophene-2-carbonyl)glycyl)-1,4-dioxa-7-azaspiro[4.4]nonane-8-carboxamide]
< 6.00 | O=C(NCC(=O)N1C[C@H](OC(F)F)C[C@H]1C(=O)NCc1ccc2ocnc2c1)c1ccc2c(c1)Oc1ccccc1S2 [Compound 282, (2S,4R)-N-(benzo[d]oxazol-5-ylmethyl)-4-(difluoromethoxy)-1-((phenoxathiine-3-carbonyl)glycyl)pyrrolidine-2-carboxamide]
> 7.00 | C[C@@H](NC(=O)[C@@H]1C[C@@H](OC(F)F)CN1C(=O)CNC(=O)c1cnc2c(c1)Oc1ccccc1S2)c1cc2cnccc2[nH]1 [Compound 283, N-[2-[(2S,4R)-4-(difluoromethoxy)-2-[[(1R)-1-(1H-pyrrolo[3,2-c]pyridin-2-yl)ethyl]carbamoyl]pyrrolidin-1-yl]-2-oxo-ethyl]-[1,4]benzoxathiino[3,2-b]pyridine-3-carboxamide]
< 6.00 | CO[C@@H]1CCN(C(=O)CNC(=O)c2ccc3c(c2)Oc2ccccc2S3)[C@@H]1C(=O)NCc1cc2cnccc2[nH]1 [Compound 285]
> 7.00 | Cc1ccc2c(c1)Sc1ccc(C(=O)NCC(=O)N3C[C@H](OC(F)F)C[C@H]3C(=O)N[C@H](C)c3cc4cnccc4[nH]3)cc1O2 [Compound 286, (2S,4R)-N-((R)-1-(1H-pyrrolo[3,2-c]pyridin-2-yl)ethyl)-4-(difluoromethoxy)-1-((8-methylphenoxathiine-3-carbonyl)glycyl)pyrrolidine-2-carboxamide]
> 7.00 | O=C(NCC(=O)N1CC2(C[C@H]1C(=O)NCc1cc3cnccc3[nH]1)OCCO2)c1ccc(Oc2ccc(Cl)c(Cl)c2)o1 [Compound 287, (S)-N-((1H-pyrrolo[3,2-c]pyridin-2-yl)methyl)-7-((5-(3,4-dichlorophenoxy)furan-2-carbonyl)glycyl)-1,4-dioxa-7-azaspiro[4.4]nonane-8-carboxamide]
> 7.00 | C[C@@H](NC(=O)C1CSCN1C(=O)CNC(=O)c1ccc2c(c1)Oc1ccccc1S2)c1cc2cnccc2[nH]1 (stereo partly drawn) [Compound 289, N-((R)-1-(1H-pyrrolo[3,2-c]pyridin-2-yl)ethyl)-3-((phenoxathiine-3-carbonyl)glycyl)thiazolidine-4-carboxamide]
< 6.00 | C[C@@]12C[C@@H]1N(C(=O)CNC(=O)c1ccc3c(c1)Oc1ccccc1S3)[C@H](C(=O)NCc1ccc3c(c1)B(O)OC3)C2 [Compound 290, (1S,3S,5S)-N-((1-hydroxy-1,3-dihydrobenzo[c][1,2]oxaborol-6-yl)methyl)-5-methyl-2-((phenoxathiine-3-carbonyl)glycyl)-2-azabicyclo[3.1.0]hexane-3-carboxamide]
< 6.00 | C[C@@]12C[C@@H]1N(C(=O)CNC(=O)c1ccc3c(c1)Oc1ccccc1S3)[C@H](C(=O)NCc1cc3cc(B(O)O)ccc3[nH]1)C2 [Compound 291, (2-(((1S,3S,5S)-5-methyl-2-((phenoxathiine-3-carbonyl)glycyl)-2-azabicyclo[3.1.0]hexane-3-carboxamido)methyl)-1H-indol-5-yl)boronic acid]
> 7.00 | Cc1ccc(Oc2cccc(C(=O)NCC(=O)N3C[C@H](OC(F)F)C[C@H]3C(=O)NCc3cc4cnccc4[nH]3)c2)c(Cl)c1 [Compound 292, (2S,4R)-N-((1H-pyrrolo[3,2-c]pyridin-2-yl)methyl)-1-((3-(2-chloro-4-methylphenoxy)benzoyl)glycyl)-4-(difluoromethoxy)pyrrolidine-2-carboxamide]
> 7.00 | CCc1ccc(Oc2cccc(C(=O)NCC(=O)N3C[C@H](OC(F)F)C[C@H]3C(=O)NCc3cc4cnccc4[nH]3)c2)cc1 [Compound 293, (2S,4R)-N-((1H-pyrrolo[3,2-c]pyridin-2-yl)methyl)-4-(difluoromethoxy)-1-((3-(4-ethylphenoxy)benzoyl)glycyl) pyrrolidine-2-carboxamide]
> 7.00 | O=C(NCC(=O)N1C[C@H](OC(F)F)C[C@H]1C(=O)NCc1cc2cnccc2[nH]1)c1cccc(Oc2ccc(C3CC3)cc2)c1 [Compound 294, (2S,4R)-N-((1H-pyrrolo[3,2-c]pyridin-2-yl)methyl)-1-((3-(4-cyclopropylphenoxy)benzoyl)glycyl)-4-(difluoromethoxy)pyrrolidine-2-carboxamide]
> 7.00 | O=C(NCC(=O)N1C[C@H](OC(F)F)C[C@H]1C(=O)NCc1cc2cnccc2[nH]1)c1cccc(Oc2cc(F)ccc2F)c1 [Compound 295, (2S,4R)-N-((1H-pyrrolo[3,2-c]pyridin-2-yl)methyl)-4-(difluoromethoxy)-1-((3-(2,5-difluorophenoxy)benzoyl)glycyl) pyrrolidine-2-carboxamide]
< 6.00 | C[C@@]12C[C@@H]1N(C(=O)CNC(=O)CCCOc1ccccc1)[C@H](C(=O)NC1CN(C(=O)[C@H]3CNCCN3)C1)C2 [Compound 296, (1S,3S,5S)-5-methyl-2-((4-phenoxybutanoyl)glycyl)-N-(1-((R)-piperazine-2-carbonyl)azetidin-3-yl)-2-azabicyclo[3.1.0]hexane-3-carboxamide]
> 7.00 | Cc1ccc(-c2ccc(C(=O)NCC(=O)N3CC4(C[C@H]3C(=O)NCc3cc5cnccc5[nH]3)OCCO4)cc2)s1 [Compound 297, (S)-N-((1H-pyrrolo[3,2-c]pyridin-2-yl)methyl)-7-((4-(5-methylthiophen-2-yl)benzoyl)glycyl)-1,4-dioxa-7-azaspiro[4.4]nonane-8-carboxamide]
> 7.00 | Cc1ccc(Oc2cccc(C(=O)NCC(=O)N3C[C@H](OC(F)F)C[C@H]3C(=O)NCc3cc4cnccc4[nH]3)c2)c(C)c1 [Compound 298, (2S,4R)-N-((1H-pyrrolo[3,2-c]pyridin-2-yl)methyl)-4-(difluoromethoxy)-1-((3-(2,4-dimethylphenoxy)benzoyl)glycyl) pyrrolidine-2-carboxamide]
> 7.00 | O=C(NCC(=O)N1C[C@H](OC(F)F)C[C@H]1C(=O)NCc1cc2cnccc2[nH]1)c1cccc(Oc2ccccc2F)c1 [Compound 299, (2S,4R)-N-((1H-pyrrolo[3,2-c]pyridin-2-yl)methyl)-4-(difluoromethoxy)-1-((3-(2-fluorophenoxy)benzoyl)glycyl) pyrrolidine-2-carboxamide]
> 7.00 | C[C@@H](NC(=O)[C@@H]1CC2(CN1C(=O)CNC(=O)c1ccc3oc4ccccc4c3c1)OCCO2)c1cc2cnccc2[nH]1 [Compound 300, (S)-N-((R)-1-(1H-pyrrolo[3,2-c]pyridin-2-yl)ethyl)-7-((dibenzo[b,d]furan-2-carbonyl)glycyl)-1,4-dioxa-7-azaspiro[4.4]nonane-8-carboxamide]
> 7.00 | CC1(C)c2ccccc2-c2cc(C(=O)NCC(=O)N3C[C@H](OC(F)F)C[C@H]3C(=O)NCc3cc4cnccc4[nH]3)ccc21 [Compound 301, (2S,4R)-N-((1H-pyrrolo[3,2-c]pyridin-2-yl)methyl)-4-(difluoromethoxy)-1-((9,9-dimethyl-9H-fluorene-3-carbonyl)glycyl) pyrrolidine-2-carboxamide]
> 7.00 | CC1c2ccccc2-c2cc(C(=O)NCC(=O)N3C[C@H](OC(F)F)C[C@H]3C(=O)NCc3cc4cnccc4[nH]3)ccc21 (stereo partly drawn) [Compound 302, (2S,4R)-N-((1H-pyrrolo[3,2-c]pyridin-2-yl)methyl)-4-(difluoromethoxy)-1-((9-methyl-9H-fluorene-3-carbonyl)glycyl) pyrrolidine-2-carboxamide]
> 7.00 | O=C(NCC(=O)N1C[C@H](OC(F)F)C[C@H]1C(=O)NCc1cc2cnccc2[nH]1)c1cccc(Oc2ccsc2)c1 [Compound 303, (2S,4R)-4-(difluoromethoxy)-N-(1H-pyrrolo[3,2-c]pyridin-2-ylmethyl)-1-[2-[[3-(3-thienyloxy)benzoyl]amino]acetyl]pyrrolidine-2-carboxamide]
> 7.00 | O=C(NCC(=O)N1C[C@H](OC(F)F)C[C@H]1C(=O)NCc1cc2cnccc2[nH]1)c1ccc(F)c(Oc2ccccc2)c1 [Compound 304, (2S,4R)-N-((1H-pyrrolo[3,2-c]pyridin-2-yl)methyl)-4-(difluoromethoxy)-1-((4-fluoro-3-phenoxybenzoyl)glycyl)pyrrolidine-2-carboxamide]
> 7.00 | Cc1ccc(Cc2cccc(C(=O)NCC(=O)N3C[C@H](OC(F)F)C[C@H]3C(=O)NCc3cc4cnccc4[nH]3)c2)c(F)c1 [Compound 305, (2S,4R)-N-((1H-pyrrolo[3,2-c]pyridin-2-yl)methyl)-4-(difluoromethoxy)-1-((3-(2-fluoro-4-methylbenzyl)benzoyl)glycyl)pyrrolidine-2-carboxamide]

SMILES | pIC50
C[C@@H](NC(=O)[C@@H]1CC(COCCCCN)CN1C(=O)CNC(=O)c1ccc2c(c1)Oc1ccccc1S2)c1cc2cnccc2[nH]1 (stereo partly drawn) [Compound 288, (2S)-N-((R)-1-(1H-pyrrolo[3,2-c]pyridin-2-yl)ethyl)-4-((4-aminobutoxy)methyl)-1-((phenoxathiine-3-carbonyl)glycyl)pyrrolidine-2-carboxamide] | > 7.00
